Tests used:
human 5HT2A = molecular target: T1, human 5HT2A (Homo sapiens, UniProt P28223); assay: AequoScreen Ca2+ release assay in CHO-K1 cells; type: cell-based; conditions: for 5-HT2A-dependent Ca^2+ release Efficacy (% ± S.E.M.): CHO-K1 cells expressing h5HT2A
T1 construct: expressed in transfected cells
Protocol: Cell Culture—AequoScreen™ Chinese hamster ovary (CHO)-K1 cells stably expressing human 5HT2A or 5HT2B (h5HT2A, h5HT2B) were maintained at 37° C., 5% CO2 in F-12 DMEM containing 1 mM L-glutamine, 10% FBS, and 1% Pen/Strep.
Ca^2+ Assay—Release of Ca^2+ into the cellular cytosol upon GPCR-dependent activation of Gaq/11 was determined using the AequoScreen™ assay in CHO-K1 cells stably expressing h5HT2A or h5HT2B. […] Upon binding Ca^2+, apoaequorin becomes activated to aequorin and converts coelenterazine to coelenteramide, CO2, and light. Light production is therefore directly proportional to the release of Ca^2+ from intracellular stores upon GPCR activation. Cells were seeded into flat bottom, white bottom, white wall, poly-D-lysine coated 96-well plates (20,000 cells/well) and incubated overnight in Opti-MEM containing 1% FBS at 37° C. and 5% CO2. Following this, Opti-MEM media was removed and replaced with fresh Opti-MEM containing 5 μM coelenterazine h (Promega, Madison, WI) and 1% FBS (final volume 50 μL) and cells were incubated at 25° C. for 4 h. After these 4 h, cells were treated with 50 μL 2× concentrated ligand solutions to achieve the concentrations indicated and centrifuged at 1,000×g for 1 min at room temperature. Chemiluminescence was then immediately measured on a Cytation5 plate reader (top read, gain 200, integration time 10,000 msec).

h5HT2A = molecular target: T2, h5HT2A (Homo sapiens, UniProt P28223); assay: NanoBit βarrestin2 recruitment assay in CHO-K1 cells; type: cell-based
T2 construct: expressed in transfected cells; host or cells: CHO-K1 cells, transient transfection with Lipofectamine 3000
Description: Cell Culture—CHO-K1 cells were transfected with either NanoBit™ smBIT h5HT2A plasmids and lgBiT βarrestin2 plasmid. When h5HT2A and βarrestin2 come into contact with one another the smBiT and lgBiT peptides complement each other to produce a complete NanoBit™ luciferase enzyme. When complete, the enzyme is able to catalyze the breakdown of the molecule coelenterazine to produce light. Emitted light levels are proportional to interactions between receptor and βarrestin2. Cells were maintained at 37° C., 5% CO2 in F-12 DMEM containing 1 mM L-glutamine, 10% FBS, and 1% Pen/Strep. For transfections, CHO-K1 cells were seeded in 6-well plates (500,000 cells per well) and incubated overnight in standard media as described above. Following overnight incubation, the cells were transfected with 1 μg of both the h5HT2A and the βarr2 NanoBiT plasmids. Transfections were carried out using Lipofectamine 3000 (Fisher Scientific, Ottawa, ON), according to the manufacturer's protocol in Opti-MEM media containing 1% FBS.
βarrestin2 assay—After seeding at 20,000 cells/well in flat bottom, white bottom, white wall, poly-D-lysine coated 96-well plates, transfected CHO-K1 cells were rinsed twice with Hank's buffered salt solution (HBSS), and 100 μL of HBSS was added to each of the wells. To this, 25 μL of Nano-Glo Live Cell Substrate was added (diluted 1/20 in the Nano-Glo LCS Dilution buffer, according to the manufacturer's protocol), and the plate was transferred to a Cytation5 plate reader. […] AUC data were then used for subsequent analyses.

[1] = CHO-K1 cells, AUC of first 30 min

T1 sequence (P28223 whole entry): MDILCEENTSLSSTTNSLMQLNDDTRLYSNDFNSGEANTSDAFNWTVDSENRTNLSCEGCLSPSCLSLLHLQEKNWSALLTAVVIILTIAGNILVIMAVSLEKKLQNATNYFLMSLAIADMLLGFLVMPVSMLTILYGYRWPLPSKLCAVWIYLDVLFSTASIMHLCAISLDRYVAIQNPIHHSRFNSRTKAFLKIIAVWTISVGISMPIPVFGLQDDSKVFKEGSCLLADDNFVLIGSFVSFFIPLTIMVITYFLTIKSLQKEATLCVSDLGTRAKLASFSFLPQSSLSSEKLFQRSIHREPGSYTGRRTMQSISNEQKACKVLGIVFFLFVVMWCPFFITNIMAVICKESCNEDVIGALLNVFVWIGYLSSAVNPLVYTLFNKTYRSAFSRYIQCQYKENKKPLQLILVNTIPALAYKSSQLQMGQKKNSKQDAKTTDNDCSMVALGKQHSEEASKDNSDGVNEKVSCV
T2 sequence (P28223 whole entry): as above
T2 sequence (P32121 whole entry, further chain): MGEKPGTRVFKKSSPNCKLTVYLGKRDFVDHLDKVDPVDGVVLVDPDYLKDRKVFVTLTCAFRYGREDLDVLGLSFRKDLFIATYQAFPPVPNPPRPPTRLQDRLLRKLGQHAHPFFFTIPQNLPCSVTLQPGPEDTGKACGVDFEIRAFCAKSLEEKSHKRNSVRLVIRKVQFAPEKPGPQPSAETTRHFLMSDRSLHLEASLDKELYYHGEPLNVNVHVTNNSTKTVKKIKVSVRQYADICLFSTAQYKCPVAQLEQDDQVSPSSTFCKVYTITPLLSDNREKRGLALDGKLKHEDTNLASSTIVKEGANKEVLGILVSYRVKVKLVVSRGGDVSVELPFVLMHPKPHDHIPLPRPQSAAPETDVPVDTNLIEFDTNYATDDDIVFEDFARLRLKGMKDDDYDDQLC

**Q.** Which “5-HT2A-dependent Ca^2+ release Efficacy (% ± S.E.M.)” value (human 5HT2A) does the source give for `CCN(CC)C(=O)[C@@H]1C=C2c3cccc4[nH]cc(c34)C[C@H]2N(C)C1` [LSD, lysergic acid diethylamide] here?
**A.** Its value is 82 ± 4.7%.

**Q.** And the “5-HT2A-dependent βarrestin2 recruitment Efficacy (% ± S.E.M.)” value (h5HT2A; [1])?
**A.** The value was 83 ± 4.7%.

**Q.** For `CN(C)CCc1c[nH]c2cccc(O)c12` [Psilocin], which “5-HT2A Ca^2+ release activity (in words)” value (human 5HT2A) is on record?
**A.** Its value is “high potency”.

**Q.** What about the “5-HT2A-dependent Ca^2+ release Efficacy (% ± S.E.M.)” value (human 5HT2A) of the same molecule?
**A.** The value was 69 ± 12%.

**Q.** And the “5-HT2A βarrestin2 recruitment activity (in words)” value (h5HT2A)?
**A.** Its value is “intermediate potency”.

**Q.** And the “5-HT2A-dependent βarrestin2 recruitment Efficacy (% ± S.E.M.)” value (h5HT2A; [1])?
**A.** The value was 45 ± 15%.

**Q.** Which results are given for `CN(C)CCc1c[nH]c2cccc(OP(=O)(O)O)c12` [Psilocybin]?
**A.** 5-HT2A-dependent Ca^2+ release Efficacy (% ± S.E.M.) (human 5HT2A): 69 ± 15%; 5-HT2A-dependent βarrestin2 recruitment Efficacy (% ± S.E.M.) (h5HT2A; [1]): 3.7 ± 22%; 5-HT2A-dependent βarrestin2 recruitment Potency (nM) (h5HT2A; [1]): not converged

**Q.** For `NCCc1c[nH]c2ccc(O)cc12` [Serotonin (5HT), 5-hydroxytryptamine], which “5-HT2A-dependent βarrestin2 recruitment Efficacy (% ± S.E.M.)” value (h5HT2A; [1]) is on record?
**A.** The value was 37 ± 16%.

Source: US12280068B1 (ZYLORION HEALTH INC., priority 2023, dated 2025)
